Tests used:
Assay in all cases: relative viability (nuclei count vs DMSO), 5 days (fraction); higher = more cells survive
NCI-H650 = test system: NCI-H650
How it was run: (§1)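 A single step with final 0.05% Triton X-100, 1% formaldehyde and 1 ug/ml Hoechst fixed the cells and stained nuclei 5 days after treatment. Lung cancer cell lines in 1536-well plates had been treated by pin tool the day after seeding with one drug alone or a fixed anchor-drug dose plus five library-drug doses (not always all listed) in √10 steps, and nuclei were counted on 4× images. Relative viability is the ratio of nuclei in treated wells to nuclei in vehicle wells, taken as the median of duplicate plates.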

NCI-H23 = test system: NCI-H23
How it was run: as §1

HOP-62 = test system: HOP-62
How it was run: as §1

NCI-H2126 = test system: NCI-H2126
How it was run: as §1

NCI-H441 = test system: NCI-H441
How it was run: as §1

NCI-H2170 = test system: NCI-H2170
How it was run: as §1

LOU-NH91 = test system: LOU-NH91
How it was run: as §1

NCI-H1437 = test system: NCI-H1437
How it was run: as §1

ChaGo-K-1 = test system: ChaGo-K-1
How it was run: as §1

NCI-H1793 = test system: NCI-H1793
How it was run: as §1

NCI-H647 = test system: NCI-H647
How it was run: as §1

PC-14 = test system: PC-14
How it was run: as §1

SW 1573 = test system: SW 1573
How it was run: as §1

SW 900 = test system: SW 900
How it was run: as §1

NCI-H2347 = test system: NCI-H2347
How it was run: as §1

NCI-H727 = test system: NCI-H727
How it was run: as §1

NCI-H2023 = test system: NCI-H2023
How it was run: as §1

LCLC-103H = test system: LCLC-103H
How it was run: as §1

HCC-44 = test system: HCC-44
How it was run: as §1

EPLC-272H = test system: EPLC-272H
How it was run: as §1

NCI-H2405 = test system: NCI-H2405
How it was run: as §1

NCI-H460 = test system: NCI-H460
How it was run: as §1

EMC-BAC-2 = test system: EMC-BAC-2
How it was run: as §1

NCI-H2009 = test system: NCI-H2009
How it was run: as §1

NCI-H520 = test system: NCI-H520
How it was run: as §1

CCCCCCCCCCCC1=C(O)C(=O)C=C(O)C1=O [Embelin] + CCNC(=O)c1noc(-c2cc(C(C)C)c(O)cc2O)c1-c1ccc(CN2CCOCC2)cc1 [Luminespib] (partner 0.01 µM)
relative viability (NCI-H650; first compound 0.08 µM): 0.712 | relative viability (NCI-H650; first compound 0.8 µM): 0.986 | relative viability (NCI-H650; first compound 2.53 µM): 0.888 | relative viability (NCI-H650; first compound 8 µM): 0.637 | relative viability (NCI-H23; first compound 0.08 µM): 0.228 | relative viability (NCI-H23; first compound 0.8 µM): 0.212 | relative viability (NCI-H23; first compound 2.53 µM): 0.221 | relative viability (NCI-H23; first compound 8 µM): 0.232 | relative viability (HOP-62; first compound 0.08 µM): 0.971 | relative viability (HOP-62; first compound 0.8 µM): 0.958 | relative viability (HOP-62; first compound 2.53 µM): 1.07 | relative viability (HOP-62; first compound 8 µM): 0.842 | relative viability (NCI-H2126; first compound 0.08 µM): 0.838 | relative viability (NCI-H2126; first compound 0.8 µM): 1.01 | relative viability (NCI-H2126; first compound 2.53 µM): 0.965 | relative viability (NCI-H2126; first compound 8 µM): 0.927 | relative viability (NCI-H441; first compound 0.08 µM): 0.32 | relative viability (NCI-H441; first compound 0.8 µM): 0.294 | relative viability (NCI-H441; first compound 2.53 µM): 0.332 | relative viability (NCI-H441; first compound 8 µM): 0.33 | relative viability (NCI-H2170; first compound 0.08 µM): 0.701 | relative viability (NCI-H2170; first compound 0.8 µM): 0.753 | relative viability (NCI-H2170; first compound 2.53 µM): 0.397 | relative viability (NCI-H2170; first compound 8 µM): 0.589 | relative viability (LOU-NH91; first compound 0.08 µM): 0.429 | relative viability (LOU-NH91; first compound 0.8 µM): 0.369 | relative viability (LOU-NH91; first compound 2.53 µM): 0.36 | relative viability (LOU-NH91; first compound 8 µM): 0.299 | relative viability (NCI-H1437; first compound 0.08 µM): 1.17 | relative viability (NCI-H1437; first compound 0.8 µM): 1.17 | relative viability (NCI-H1437; first compound 2.53 µM): 1.08 | relative viability (NCI-H1437; first compound 8 µM): 0.622 | relative viability (ChaGo-K-1; first compound 0.08 µM): 0.529 | relative viability (ChaGo-K-1; first compound 0.8 µM): 0.755 | relative viability (ChaGo-K-1; first compound 2.53 µM): 0.776 | relative viability (ChaGo-K-1; first compound 8 µM): 0.587 | relative viability (NCI-H1793; first compound 0.08 µM): 0.175 | relative viability (NCI-H1793; first compound 0.8 µM): 0.192 | relative viability (NCI-H1793; first compound 2.53 µM): 0.207 | relative viability (NCI-H1793; first compound 8 µM): 0.186 | relative viability (NCI-H647; first compound 0.08 µM): 0.233 | relative viability (NCI-H647; first compound 0.8 µM): 0.326 | relative viability (NCI-H647; first compound 2.53 µM): 0.138 | relative viability (NCI-H647; first compound 8 µM): 0.132 | relative viability (PC-14; first compound 0.08 µM): 0.203 | relative viability (PC-14; first compound 0.8 µM): 0.235 | relative viability (PC-14; first compound 2.53 µM): 0.211 | relative viability (PC-14; first compound 8 µM): 0.167 | relative viability (SW 1573; first compound 0.08 µM): 0.256 | relative viability (SW 1573; first compound 0.8 µM): 0.341 | relative viability (SW 1573; first compound 2.53 µM): 0.252 | relative viability (SW 1573; first compound 8 µM): 0.216 | relative viability (SW 900; first compound 0.08 µM): 0.196 | relative viability (SW 900; first compound 0.8 µM): 0.138 | relative viability (SW 900; first compound 2.53 µM): 0.188 | relative viability (SW 900; first compound 8 µM): 0.18 | relative viability (NCI-H2347; first compound 0.08 µM): 0.73 | relative viability (NCI-H2347; first compound 0.8 µM): 0.489 | relative viability (NCI-H2347; first compound 2.53 µM): 0.686 | relative viability (NCI-H2347; first compound 8 µM): 0.62 | relative viability (NCI-H727; first compound 0.08 µM): 0.317 | relative viability (NCI-H727; first compound 0.8 µM): 0.417 | relative viability (NCI-H727; first compound 2.53 µM): 0.304 | relative viability (NCI-H727; first compound 8 µM): 0.386 | relative viability (NCI-H2023; first compound 0.08 µM): 0.813 | relative viability (NCI-H2023; first compound 0.8 µM): 0.914 | relative viability (NCI-H2023; first compound 2.53 µM): 0.773 | relative viability (NCI-H2023; first compound 8 µM): 0.372 | relative viability (LCLC-103H; first compound 0.08 µM): 1 | relative viability (LCLC-103H; first compound 0.8 µM): 1.03 | relative viability (LCLC-103H; first compound 2.53 µM): 1.14 | relative viability (LCLC-103H; first compound 8 µM): 0.926 | relative viability (HCC-44; first compound 0.08 µM): 1.04 | relative viability (HCC-44; first compound 0.8 µM): 1.1 | relative viability (HCC-44; first compound 2.53 µM): 1.37 | relative viability (HCC-44; first compound 8 µM): 0.852 | relative viability (EPLC-272H; first compound 0.08 µM): 0.69 | relative viability (EPLC-272H; first compound 0.8 µM): 0.222 | relative viability (EPLC-272H; first compound 2.53 µM): 0.253 | relative viability (EPLC-272H; first compound 8 µM): 0.266 | relative viability (NCI-H2405; first compound 0.08 µM): 0.723 | relative viability (NCI-H2405; first compound 0.8 µM): 0.681 | relative viability (NCI-H2405; first compound 2.53 µM): 0.775 | relative viability (NCI-H2405; first compound 8 µM): 0.738 | relative viability (NCI-H460; first compound 0.08 µM): 0.0322 | relative viability (NCI-H460; first compound 0.8 µM): 0.0396 | relative viability (NCI-H460; first compound 2.53 µM): 0.0367 | relative viability (NCI-H460; first compound 8 µM): 0.029 | relative viability (EMC-BAC-2; first compound 0.08 µM): 1.14 | relative viability (EMC-BAC-2; first compound 0.8 µM): 1.38 | relative viability (EMC-BAC-2; first compound 2.53 µM): 1.22 | relative viability (EMC-BAC-2; first compound 8 µM): 1.29 | relative viability (NCI-H2009; first compound 0.08 µM): 1.05 | relative viability (NCI-H2009; first compound 0.8 µM): 1.07 | relative viability (NCI-H2009; first compound 2.53 µM): 1.08 | relative viability (NCI-H2009; first compound 8 µM): 1.01 | relative viability (NCI-H520; first compound 0.08 µM): 0.224 | relative viability (NCI-H520; first compound 0.8 µM): 0.29 | relative viability (NCI-H520; first compound 2.53 µM): 0.183 | relative viability (NCI-H520; first compound 8 µM): 0.235
